This passage reports logP results from the SangsterLogP compilation.

Broadly, the logP is the decadic logarithm of the partition coefficient of the neutral form, usually between octanol and water. Low values mean lower lipophilicity, high ones higher lipophilicity. Regarding `CNC(=O)N1C(=O)CN=C(c2ccccc2)c2cc([N+](=O)[O-])ccc21`, the logP worked out at 1.76.
As for `O=C1C(O)N=C(c2ccccc2F)c2cc(Cl)ccc2N1CCO` (stereo not drawn), the figure is 1.52; as for `CN1C(=O)C(O)N=C(c2ccccc2Cl)c2cc(Cl)ccc21` (stereo not drawn), 2.5.
Take `O=C1C(O)N=C(c2ccccc2)c2cc(Cl)ccc2N1CCCO` (stereo not drawn): the logP was 1.68.
Take `CC(=O)OC1N=C(c2ccccc2)c2cc(Cl)ccc2N(CCO)C1=O` (stereo not drawn): the logP came out at 2.45.
Consider `O=C1Nc2ccc(Cl)cc2C(c2ccccc2F)=NC1O` (stereo not drawn), for which the logP came out at 1.81.
Turning to `O=C(O)CCC(=O)OC1N=C(c2ccccc2)c2cc(Cl)ccc2NC1=O` (stereo not drawn), the logP stood at 1.5.
In turn, `CC(=O)OCCN1C(=O)C(OC(C)=O)N=C(c2ccccc2)c2cc(Cl)ccc21` (stereo not drawn) registered a logP of 2.74.
`O=C1C(O)N=C(c2ccccc2)c2cc(Cl)ccc2N1CCO` (stereo not drawn): the log partition coefficient (logP) came to 1.53.
`CN1C(=O)C(O)N=C(c2ccccc2F)c2cc(Cl)ccc21` (stereo not drawn) registered a logP of 2.09.
As for `O=C1CN=C(c2ccccc2)c2cc(Cl)ccc2N1CC(F)(F)F`, the logP is 3.97.
For `O=C(O)CCC(=O)OCCN1C(=O)C[N+]([O-])=C(c2ccccc2)c2cc(Cl)ccc21` the value was 0.36.
For `CCN(CC)CCN1C(=O)C(O)N=C(c2ccccc2F)c2cc(Cl)ccc21` (stereo not drawn) the value was 1.89; for `COc1cc(C(=O)OC2N=C(c3ccccc3)c3cc(Cl)ccc3NC2=O)cc(OC)c1OC` (stereo not drawn), 3.75; for `O=C1C(O)N=C(c2ccccc2)c2cc([N+](=O)[O-])ccc2N1CCO` (stereo not drawn), 0.55.
For `CCN(CC)CCN1C(=O)C(O)N=C(c2ccccc2Cl)c2cc(Cl)ccc21` (stereo not drawn) the value was 1.76; for `CCOC1N=C(c2ccccc2)c2cc(Cl)ccc2N(CCO)C1=O` (stereo not drawn), 2.44; for `CCN(CC)CCN1C(=O)C(O)N=C(c2ccccc2)c2cc(Cl)ccc21` (stereo not drawn), 1.7.
As for `CCCC(CCC)C(=O)OC1N=C(c2ccccc2)c2cc(Cl)ccc2NC1=O` (stereo not drawn), the lipophilicity (logP) came to 4.94.
Take `CC(=O)OCCCN1C(=O)C(OC(C)=O)N=C(c2ccccc2)c2cc(Cl)ccc21` (stereo not drawn): the lipophilicity (logP) was 3.08.
As for `O=C1C[N+]([O-])=C(c2ccccc2)c2cc(Cl)ccc2N1CCO`, the figure is 0.82.
Turning to `O=C1C(O)N=C(c2ccccc2Cl)c2cc(Cl)ccc2N1CCO` (stereo not drawn), the logP turned out to be 2.16.
`CCOC1N=C(c2ccccc2)c2cc(Cl)ccc2N(CCCl)C1=O` (stereo not drawn) gave a logP of 3.53.
